Each molecule was assayed against T1, Human CaV2.2 channels (Homo sapiens, UniProt Q00975) (assay: Fluorescence assay for CaV2.2 channels using potassium depolarization to induce channel opening (FLIPR, Fluo 4)). Settings: 3 μM test compound, 30 mM KCl assay buffer (inactivated channel state), HEK293 cells.
T1 construct: expressed in transfected cells; Kir2.3 also stably co-expressed
T1 sequence (Q00975 whole entry): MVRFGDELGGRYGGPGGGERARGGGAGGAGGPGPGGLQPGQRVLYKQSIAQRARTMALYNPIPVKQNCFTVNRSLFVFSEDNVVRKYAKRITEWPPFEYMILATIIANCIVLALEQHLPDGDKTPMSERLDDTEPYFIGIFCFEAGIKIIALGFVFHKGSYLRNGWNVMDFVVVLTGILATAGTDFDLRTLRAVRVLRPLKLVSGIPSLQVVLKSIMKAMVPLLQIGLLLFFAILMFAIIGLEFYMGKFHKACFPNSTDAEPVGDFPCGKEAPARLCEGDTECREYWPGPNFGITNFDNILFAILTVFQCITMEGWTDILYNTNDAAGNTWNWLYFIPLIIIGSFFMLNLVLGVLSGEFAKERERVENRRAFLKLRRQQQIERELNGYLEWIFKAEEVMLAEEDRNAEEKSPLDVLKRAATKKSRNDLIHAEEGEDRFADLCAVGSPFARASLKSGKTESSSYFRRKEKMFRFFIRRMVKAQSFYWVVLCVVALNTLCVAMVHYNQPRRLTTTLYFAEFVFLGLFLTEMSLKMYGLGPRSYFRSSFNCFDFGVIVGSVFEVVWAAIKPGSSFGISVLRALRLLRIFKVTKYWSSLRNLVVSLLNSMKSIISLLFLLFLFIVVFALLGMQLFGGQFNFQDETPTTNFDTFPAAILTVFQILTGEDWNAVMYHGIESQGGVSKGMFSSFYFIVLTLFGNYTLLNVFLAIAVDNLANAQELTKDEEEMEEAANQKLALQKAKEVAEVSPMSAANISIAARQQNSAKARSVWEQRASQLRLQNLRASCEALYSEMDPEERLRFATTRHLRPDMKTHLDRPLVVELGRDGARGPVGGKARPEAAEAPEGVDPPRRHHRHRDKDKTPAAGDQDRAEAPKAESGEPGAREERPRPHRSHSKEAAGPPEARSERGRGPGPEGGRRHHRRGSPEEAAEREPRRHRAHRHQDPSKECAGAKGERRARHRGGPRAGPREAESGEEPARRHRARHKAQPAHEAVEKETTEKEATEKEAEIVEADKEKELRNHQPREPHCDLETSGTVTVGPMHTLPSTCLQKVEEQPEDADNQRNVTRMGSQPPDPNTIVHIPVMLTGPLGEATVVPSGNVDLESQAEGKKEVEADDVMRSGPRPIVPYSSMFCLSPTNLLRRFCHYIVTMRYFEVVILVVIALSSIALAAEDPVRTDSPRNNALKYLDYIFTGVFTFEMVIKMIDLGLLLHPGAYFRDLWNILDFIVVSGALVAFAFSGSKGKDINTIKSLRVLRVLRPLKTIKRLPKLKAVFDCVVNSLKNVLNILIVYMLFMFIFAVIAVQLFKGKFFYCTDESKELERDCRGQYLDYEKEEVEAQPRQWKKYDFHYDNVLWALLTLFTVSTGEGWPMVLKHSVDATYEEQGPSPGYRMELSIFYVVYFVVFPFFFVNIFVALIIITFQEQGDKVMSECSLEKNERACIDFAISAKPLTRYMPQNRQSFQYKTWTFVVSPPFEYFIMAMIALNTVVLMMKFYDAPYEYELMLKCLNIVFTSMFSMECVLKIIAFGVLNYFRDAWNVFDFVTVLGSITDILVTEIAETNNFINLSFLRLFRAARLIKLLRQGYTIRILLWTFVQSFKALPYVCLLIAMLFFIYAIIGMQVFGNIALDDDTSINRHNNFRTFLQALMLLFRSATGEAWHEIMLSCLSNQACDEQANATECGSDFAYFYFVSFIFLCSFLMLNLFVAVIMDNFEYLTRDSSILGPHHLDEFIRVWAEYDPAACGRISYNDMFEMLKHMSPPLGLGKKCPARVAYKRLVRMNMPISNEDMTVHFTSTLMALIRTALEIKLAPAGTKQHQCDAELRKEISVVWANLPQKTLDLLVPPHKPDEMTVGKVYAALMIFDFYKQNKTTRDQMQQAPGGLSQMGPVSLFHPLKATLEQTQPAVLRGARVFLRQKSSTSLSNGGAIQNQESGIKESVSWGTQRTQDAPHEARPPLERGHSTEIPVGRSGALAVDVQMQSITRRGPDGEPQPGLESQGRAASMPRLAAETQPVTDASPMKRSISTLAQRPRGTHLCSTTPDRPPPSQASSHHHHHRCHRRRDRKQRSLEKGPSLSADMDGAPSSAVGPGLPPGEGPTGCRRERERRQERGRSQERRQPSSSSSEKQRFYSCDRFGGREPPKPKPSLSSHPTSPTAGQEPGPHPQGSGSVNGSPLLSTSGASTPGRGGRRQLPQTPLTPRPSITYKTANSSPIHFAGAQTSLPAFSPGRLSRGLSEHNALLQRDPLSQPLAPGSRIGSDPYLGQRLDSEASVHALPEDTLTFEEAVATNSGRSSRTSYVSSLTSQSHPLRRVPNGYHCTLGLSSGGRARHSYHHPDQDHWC
Assay type: cell-based
Text: In the process, the Ca^2+ influx is quantified in the FLIPR assay with the aid of a Ca^2+-sensitive dye (type Fluo-4, Molecular Probes Europe BV, Leiden, the Netherlands) in a fluorescent imaging plate reader (FLIPR 3, Molecular Devices, Sunnyvale, USA), as described hereinafter.
Human CaV2.2 channels were stably expressed in HEK293 cells together with alpha2-delta and beta subunits of voltage gated calcium channels. In addition, an inwardly rectifying potassium channel (Kir2.3) was stably expressed in these cells to augment control of the cell membrane potential by the concentration of extracellular potassium ions. Raise of the extracellular potassium concentration leads to depolarization of the membrane potential and thus regulates the voltage dependent state of CaV2.2 channels. For preparation, cells were seeded in black poly-D-lysine coated 96-well plates (Becton Dickinson, Biocoat 4640) in 100 μL medium [500 mL DMEM/F-12 plus Glutamax (Invitrogen 31331-093) plus 5.5 mL MEM NEAA 100× (Invitrogen 11140-035) plus 50 mL FBS decomplemented (Invitrogen 10270-106) plus 200 μg/mL Geneticin (Invitrogen 10131-027) plus 50 μg/mL Hygromycin B (Invitrogen 10687-010) plus 2 μg/mL Blasticidin (anti-bl5b Invivo-Gen) plus 0.2 μg/mL Puromycin (A 11138-03)] at a cell density of 30.000 cells per well. Plates were incubated at 37° C. (5% CO2) for 20 to 23 h. On the day of experiment medium was discarded and cells were loaded with Fluo 4 by addition of 100 μL of basic assay buffer (10 mM HEPES, 1 mM KCl, 149 mM NaCl, 0.8 mM CaCl2, 1.7 mM MgCl2, 10 mM Glucose, 0.1% BSA. pH 7.4) containing 2 μM Fluo 4 (Molecular Probes; F-14201), 0.01% pluronic acid (Molecular Probes; P-6866) and 2.5 mM probenecid (Molecular Probes; P36400). Cells were incubated in the dark at 25° C. for 60 min. Then dye containing buffer was discarded and 100 μL basic (1 mM KCl) or alternative (30 mM KCl) assay buffer was added. The alternative assay buffer contained altered concentrations of KCl (30 mM) and NaCl (120 mM) and was used in order to promote the inactivated channel state. After that 25 μL of basic or alternative assay buffer with or without test compound were added and cells were incubated again in the dark at 25° C. for 15 min. Fluorescence intensity was measured on a FLIPR 3 instrument (Molecular Devices Corp., Sunnyvale, Calif.) with excitation at 480 nm and emission at 535 nm. After continuously reading fluorescence for 30 sec, 50 μL of basic assay buffer containing 210 mM KCl (NaCl omitted) were added for depolarization. Peak fluorescent signal intensity was determined and the amplitude of the peak signal, normalized to base line, was used to measure channel inhibition by test compounds.
For `CC1(S(=O)(=O)c2cccc(C(F)(F)F)c2)CCOC(c2ccc(S(C)(=O)=O)c(F)c2)C1` (stereo not drawn) [SC-209, 2-(3-Fluoro-4-methylsulfonyl-phenyl)-4-methyl-4-[[3-(trifluoromethyl)phenyl]sulfonyl]-tetrahydro-pyran], the “Activity Category: %-Inhib (CaV2.2) @3 μM @30 mM KCl” value (“Activity Category: %-Inhib” below) was “B (%-Inhibition >75% up to ≦95%)”. For `CC1(S(=O)(=O)c2cccc(C(F)(F)F)c2)CCOC(c2ccc(F)c(S(C)(=O)=O)c2)C1` (stereo not drawn) [SC-213, 2-(4-Fluoro-3-methylsulfonyl-phenyl)-4-methyl-4-[[3-(trifluoromethyl)phenyl]sulfonyl]-tetrahydro-pyran], the “Activity Category: %-Inhib” value was “B (%-Inhibition >75% up to ≦95%)”. In the case of `CN(C)CC1(S(=O)(=O)c2cccc(C(F)(F)F)c2)CCOC(c2ccc(Cl)cc2)C1` (stereo not drawn) [SC-214, [[2-(4-Chlorophenyl)-4-[[3-(trifluoromethyl)phenyl]sulfonyl]-tetrahydro-pyran-4-yl]-methyl]-dimethyl-amine], the “Activity Category: %-Inhib” value is reported as “A (%-Inhibition >95%)”. In the case of `CN(C)CC1(S(=O)(=O)c2cccc(C(F)(F)F)c2)CCOC(c2ccc(Cl)cc2)C1` (stereo not drawn) [SC-215, [[2-(4-Chlorophenyl)-4-[[3-(trifluoromethyl)phenyl]sulfonyl]-tetrahydro-pyran-4-yl]-methyl]-dimethyl-amine], the “Activity Category: %-Inhib” value is reported as “C (%-Inhibition >40% up to ≦75%)”. With `COCC1(S(=O)(=O)c2cccc(C(F)(F)F)c2)CCOC(c2ccc(Cl)cc2)C1` (stereo not drawn) [SC-216, 2-(4-Chlorophenyl)-4-(methoxymethyl)-4-[[3-(trifluoromethyl)phenyl]sulfonyl]-tetrahydro-pyran] the “Activity Category: %-Inhib” value was “B (%-Inhibition >75% up to ≦95%)”. `COCC1(S(=O)(=O)c2cccc(C(F)(F)F)c2)CCOC(c2ccc(Cl)cc2)C1` (stereo not drawn) [SC-217, 2-(4-Chlorophenyl)-4-(methoxymethyl)-4-[[3-(trifluoromethyl)phenyl]sulfonyl]-tetrahydro-pyran] was tested, and the “Activity Category: %-Inhib” value was “C (%-Inhibition >40% up to ≦75%)”. `CC1(S(=O)(=O)c2cccc(C(F)(F)F)c2)CCOC(c2ccccc2S(C)(=O)=O)C1` (stereo not drawn) [SC-222, 4-Methyl-2-(2-methylsulfonyl-phenyl)-4-[[3-(trifluoromethyl)phenyl]sulfonyl]-tetrahydro-pyran] was tested, and the “Activity Category: %-Inhib” value was “A (%-Inhibition >95%)”. In the case of `CC1(S(=O)(=O)c2cccc(C(F)(F)F)c2)CCOC(c2ccccc2S(C)(=O)=O)C1` (stereo not drawn) [SC-223, 4-Methyl-2-(2-methylsulfonyl-phenyl)-4-[[3-(trifluoromethyl)phenyl]sulfonyl]-tetrahydro-pyran], the “Activity Category: %-Inhib” value is reported as “C (%-Inhibition >40% up to ≦75%)”. In the case of `Cc1cc(Cl)ccc1C1CC(C)(S(=O)(=O)c2cccc(C(F)(F)F)c2)CCO1` (stereo not drawn) [SC-225, 2-(4-Chloro-2-methyl-phenyl)-4-methyl-4-[[3-(trifluoromethyl)phenyl]sulfonyl]-tetrahydro-pyran], the “Activity Category: %-Inhib” value is reported as “A (%-Inhibition >95%)”. `CCC1(S(=O)(=O)c2cccc(C(F)(F)F)c2)CCOC(c2ccc(Cl)cc2)C1` (stereo not drawn) [SC-231, 2-(4-Chlorophenyl)-4-ethyl-4-[[3-(trifluoromethyl)phenyl]sulfonyl]-tetrahydro-pyran] was tested, and the “Activity Category: %-Inhib” value was “B (%-Inhibition >75% up to ≦95%)”.

Same assay, conditions: HEK293, 3 μM test compound, 30 mM KCl assay buffer (inactivated channel state), HEK293 cells; read-out: Activity Category: %-Inhib (CaV2.2) @3 μM @30 mM KCl
`Cc1ccc(C2CC(C)(S(=O)(=O)c3cccc(C(F)(F)F)c3)CCO2)cc1S(C)(=O)=O` (stereo not drawn) [SC-210, 4-Methyl-2-(4-methyl-3-methylsulfonyl-phenyl)-4-[[3-(trifluoromethyl)phenyl]sulfonyl]-tetrahydro-pyran] showed an inhibition at 3 µM greater than 95%. Molecule `CC1(S(=O)(=O)c2cccc(C(F)(F)F)c2)CCOC(c2ccc(F)c(S(C)(=O)=O)c2)C1` (stereo not drawn) [SC-212, 2-(4-Fluoro-3-methylsulfonyl-phenyl)-4-methyl-4-[[3-(trifluoromethyl)phenyl]sulfonyl]-tetrahydro-pyran] has an inhibition at 3 µM greater than 95%. In the case of `CC1(S(=O)(=O)c2cccc(C(F)(F)F)c2)CCOC(c2ccc(S(C)(=O)=O)cc2Cl)C1` (stereo not drawn) [SC-218, 2-(2-Chloro-4-methylsulfonyl-phenyl)-4-methyl-4-[[3-(trifluoromethyl)phenyl]sulfonyl]-tetrahydro-pyran], the inhibition at 3 µM is reported as greater than 95%. Molecule `CC1(S(=O)(=O)c2cccc(C(F)(F)F)c2)CCOC(c2cccc(S(C)(=O)=O)c2)C1` (stereo not drawn) [SC-220, 4-Methyl-2-(3-methylsulfonyl-phenyl)-4-[[3-(trifluoromethyl)phenyl]sulfonyl]-tetrahydro-pyran] has an inhibition at 3 µM of 75 to 95%. `Cc1cc(Cl)ccc1C1CC(C)(S(=O)(=O)c2cccc(C(F)(F)F)c2)CCO1` (stereo not drawn) [SC-224, 2-(4-Chloro-2-methyl-phenyl)-4-methyl-4-[[3-(trifluoromethyl)phenyl]sulfonyl]-tetrahydro-pyran] gave an inhibition at 3 µM of 75 to 95%. In the case of `COc1cc(C2CC(C)(S(=O)(=O)c3cccc(C(F)(F)F)c3)CCO2)ccc1Cl` (stereo not drawn) [SC-226, 2-(4-Chloro-3-methoxy-phenyl)-4-methyl-4-[[3-(trifluoromethyl)phenyl]sulfonyl]-tetrahydro-pyran], the inhibition at 3 µM is reported as greater than 95%. `CC1(S(=O)(=O)c2cccc(C(F)(F)F)c2)CCOC(c2ccc(F)c(Cl)c2)C1` (stereo not drawn) [SC-228, 2-(3-Chloro-4-fluoro-phenyl)-4-methyl-4-[[3-(trifluoromethyl)phenyl]sulfonyl]-tetrahydro-pyran] showed an inhibition at 3 µM greater than 95%. For `CCC1(S(=O)(=O)c2cccc(C(F)(F)F)c2)CCOC(c2ccc(Cl)cc2)C1` (stereo not drawn) [SC-230, 2-(4-Chlorophenyl)-4-ethyl-4-[[3-(trifluoromethyl)phenyl]sulfonyl]-tetrahydro-pyran], the inhibition at 3 µM was greater than 95%. `CC1(S(=O)(=O)c2cccc(C(F)(F)F)c2)CCOC(c2ccc(C(F)(F)F)cc2S(C)(=O)=O)C1` (stereo not drawn) [SC-232, 4-Methyl-2-[2-methylsulfonyl-4-(trifluoromethyl)-phenyl]-4-[[3-(trifluoromethyl)phenyl]sulfonyl]-tetrahydro-pyran] gave an inhibition at 3 µM greater than 95%. For `CC1(S(=O)(=O)c2cccc(C(F)(F)F)c2)CCOC(c2ccc(S(C)(=O)=O)c(C(F)(F)F)c2)C1` (stereo not drawn) [SC-235, 4-Methyl-2-[4-methylsulfonyl-3-(trifluoromethyl)-phenyl]-4-[[3-(trifluoromethyl)phenyl]sulfonyl]-tetrahydro-pyran], the inhibition at 3 µM was greater than 95%. Molecule `CC1(S(=O)(=O)c2cccc(C(F)(F)F)c2)CCOC(c2ccc(Cl)c(S(C)(=O)=O)c2)C1` (stereo not drawn) [SC-237, 2-(4-Chloro-3-methylsulfonyl-phenyl)-4-methyl-4-[[3-(trifluoromethyl)phenyl]sulfonyl]-tetrahydro-pyran] has an inhibition at 3 µM greater than 95%. `CC1(S(=O)(=O)c2cccc(C(F)(F)F)c2)CCOC(c2ccc(S(C)(=O)=O)c(Cl)c2)C1` (stereo not drawn) [SC-239, 2-(3-Chloro-4-methylsulfonyl-phenyl)-4-methyl-4-[[3-(trifluoromethyl)phenyl]sulfonyl]-tetrahydro-pyran] showed an inhibition at 3 µM greater than 95%. Work on `CC1(S(=O)(=O)c2cccc(C(F)(F)F)c2)CCOC(c2ccc(S(C)(=O)=O)cc2F)C1` (stereo not drawn) [SC-241, 2-(2-Fluoro-4-methylsulfonyl-phenyl)-4-methyl-4-[[3-(trifluoromethyl)phenyl]sulfonyl]-tetrahydro-pyran] yielded an inhibition at 3 µM greater than 95%. With `CC1(S(=O)(=O)c2cccc(C(F)(F)F)c2)CCOC(c2cc(Cl)cc(S(C)(=O)=O)c2)C1` (stereo not drawn) [SC-243, 2-(3-Chloro-5-methylsulfonyl-phenyl)-4-methyl-4-[[3-(trifluoromethyl)phenyl]sulfonyl]-tetrahydro-pyran] the inhibition at 3 µM was greater than 95%. `CC1(S(=O)(=O)c2cccc(C(F)(F)F)n2)CCOC(c2ccc(S(C)(=O)=O)c(F)c2)C1` (stereo not drawn) [SC-245, 2-[[2-(3-Fluoro-4-methylsulfonyl-phenyl)-4-methyl-tetrahydro-pyran-4-yl]sulfonyl]-6-(trifluoromethyl)-pyridine] gave an inhibition at 3 µM of 40 to 75%. `CC1(S(=O)(=O)c2cccc(C(F)(F)F)c2)CCOC(c2cc(S(C)(=O)=O)ccc2Cl)C1` (stereo not drawn) [SC-247, 2-(2-Chloro-5-methylsulfonyl-phenyl)-4-methyl-4-[[3-(trifluoromethyl)phenyl]sulfonyl]-tetrahydro-pyran] gave an inhibition at 3 µM greater than 95%. Work on `CC1(S(=O)(=O)c2cccc(C(F)(F)F)c2)CCOC(c2ccc(C(F)(F)F)c(S(C)(=O)=O)c2)C1` (stereo not drawn) [SC-249, 4-Methyl-2-[3-methylsulfonyl-4-(trifluoromethyl)-phenyl]-4-[[3-(trifluoromethyl)phenyl]sulfonyl]-tetrahydro-pyran] yielded an inhibition at 3 µM greater than 95%.

Reference: patent US9896440B2, “Aryl substituted heterocyclyl sulfones” (GRÜNENTHAL GMBH, priority 2014, dated 2018)
